# “And” between values parts separate entries of the source, which are not always exact repeats. Identical values can stand only once.
# System: recurrent or metastatic (R/M) adenoid cystic carcinoma (ACC)
# Test: Phase 2 single-arm study of rivoceranib in R/M ACC: response, DoR, PFS, TTP per RECIST V1.1
# Type: in vivo, human
# Conditions: for estimated PFS rate at 9 months: efficacy evaluable
# Text: Overall design: An ongoing Phase 2, multicenter, open-label, single-arm study was designed to evaluate the efficacy and safety of rivoceranib in patients with recurrent or metastatic (R/M) adenoid cystic carcinoma (ACC) of all anatomic sites of origin. The study was composed of an initial screening phase (up to 28 days), a treatment phase, and a follow-up phase.
# Objectives: Primary objectives were to evaluate safety & tolerability, efficacy by objective response rate (ORR), best overall response (BOR), time to response, duration of response, disease control rate, and duration of disease control. Secondary objectives were to evaluate efficacy as measured by overall survival, progression-free survival and event-free survival. The primary efficacy endpoint was the ORR, defined as the proportion of patients who achieved confirmed complete response (CR) or partial response (PR) per Response Evaluation Criteria in Solid Tumors (RECIST) Version 1.1 (V1.1). The secondary efficacy endpoints were duration of response (DoR) assessed by the investigator and a blinded independent review committee (BIRC), progression-free survival (PFS) assessed at 6 months, 12 months, and 2 years by investigator and BIRC, Time to Progression (TTP) assessed by investigator and BIRC, and overall survival (OS) assessed at 1 and 2 years. Exploratory efficacy endpoints include ORR per CHOI response criteria (based on the journal article, Choi et al., Correlation of computed tomography and positron emission tomography in patients with metastatic gastrointestinal stromal tumor treated at a single institution with imatinib mesylate: proposal of new computed tomography response criteria. J Clin Oncol. 2007; 25(13): 1753-1759) by a blinded independent review […] (BIRC) and disease control rate (DCR) per RECIST V1.1 by Investigator and BIRC. Except for CHOI response criteria, all response endpoints were assessed per RECIST V1.1 by Investigator and BIRC.
# Patients: The study was conducted at 11 study sites in the USA and South Korea. A total of 80 patients were enrolled and received at least 1 dose of study drug (rivoceranib). Fifty-three patients were enrolled in the USA and 27 patients were enrolled in Korea. Eligible patients were 18 years or older and were required to have histologically or cytologically confirmed R/M ACC of any anatomic location not amenable to curative surgery or radiotherapy. Due to the indolent nature of the disease, patients were required to have evidence of disease progression by RECIST V1.1 within the 6 months prior to study entry, evidenced by: ≥20% increase in radiologically or clinically measurable lesions or appearance of new lesions. Patients were required to have at least 1 measurable target lesion by RECIST V1.1. There were no restrictions on prior systemic therapies. Patients were permitted to have prior VEGFR TKI exposure if dosage was discontinued within 5 half-lives prior to rivoceranib treatment. The patients were permitted if they have an Eastern Cooperative Oncology Group (ECOG) performance status of 0 or 1. Patients with treated central nervous system metastases were permitted if they were stable for four weeks prior to study treatment. Eligible patients had documented primary diagnosis of solid tumor cancer of ACC for which anti-VEGFR-2 targeted therapy could be applicable. The majority of patients had primary tumors in the major (33.8%) or minor (58.8%) salivary glands; 6 patients (7.5%) had primary tumors in other locations: lung, breast, trachea, Cowper's gland, intracranial temporal lobe and lymph node. Median time from original ACC diagnosis was 69.62 months. The majority of patients (92.5%) had metastatic disease.
# Dose determination: Enrolled patients initiated treatment with rivoceranib 700 mg daily (QD). Up to 3 levels of dose reduction for toxicity were permitted: 500 mg QD, 300 mg QD and 200 mg QD. Patients received treatment until disease progression, unacceptable toxicity, death or withdrawal of consent to treatment. […]
# [1] = RECIST V1.1, BIRC, 700 mg QD start
# [2] = RECIST V1.1, BIRC, Total N = 73, 700 mg QD start
# [3] = RECIST V1.1, BIRC, Total N = 73, Kaplan-Meier, 700 mg QD start
# [4] = RECIST V1.1, BIRC, VEGFRi-naïve N = 60, 700 mg QD start
# [5] = RECIST V1.1, BIRC, VEGFRi-naïve N = 60, Kaplan-Meier, 700 mg QD start
# [6] = RECIST V1.1, BIRC, VEGFRi-treated N = 13, 700 mg QD start
# [7] = RECIST V1.1, BIRC, VEGFRi-treated N = 13, Kaplan-Meier, 700 mg QD start
# [8] = RECIST V1.1, Investigator, 700 mg QD start
# [9] = RECIST V1.1, Investigator, Systemic therapy-naïve N = 29, 700 mg QD start
# [10] = RECIST V1.1, Investigator, Systemic therapy-treated N = 44, 700 mg QD start
# [11] = RECIST V1.1, Investigator, Total N = 73, 700 mg QD start
# [12] = RECIST V1.1, Investigator, Total N = 73, Kaplan-Meier, 700 mg QD start
# [13] = RECIST V1.1, Investigator, VEGFRi-naïve N = 60, 700 mg QD start
# [14] = RECIST V1.1, Investigator, VEGFRi-naïve N = 60, Kaplan-Meier, 700 mg QD start
# [15] = RECIST V1.1, Investigator, VEGFRi-treated N = 13, 700 mg QD start
# [16] = RECIST V1.1, Investigator, patients with ≥20% pre-study increase in lesions, N = 51
# [17] = confirmed objective response by Investigator
# [18] = within the 19.5-month follow-up, N = 80
compound,measurement,setting,value
"N#CC1(c2ccc(NC(=O)c3cccnc3NCc3ccncc3)cc2)CCCC1 [Rivoceranib, N-[4-(1-cyanocyclopentyl)phenyl]-2-{[(pyridin-4-yl)methyl]amino}pyridine-3-carboxamide]",remaining (non-ORR) patients who had a tumor size reduction,700 mg QD start,about 85%
same,median PFS,"Kaplan-Meier, patients previously treated with systemic therapy, 700 mg QD start",8.9 months
same,median PFS,"Kaplan-Meier, patients without any prior systemic therapy, 700 mg QD start",13.7 months
same,ORR based on patients assessed as responders by either Investigator or BIRC,"RECIST V1.1, 15 out of 73 patients, 700 mg QD start",20.5%
same,estimated TTP rate at 6 months,[1],80.7%
same,estimated TTP rate at 9 months,[1],57.3%
same,estimated TTP rate at 12 months,[1],41%
same,BOR: Complete Response,[2],0%
same,BOR: Not Evaluable,[2],1 (1.4) %
same,BOR: Partial Response,[2],7 (9.6) %
same,BOR: Progressive Disease,[2],5.5% and 4 (5.5) %
same,BOR: Stable Disease,[2],61 (83.6) %
same,"DCR (disease control rate, CR, PR or SD ≥3 months)",[2],65.8% and 64.4% and 48 (65.8) %
same,Median TTP (95% CI),[2],9.3 (8.5-13.6) months
same,ORR (objective response rate),[2],9.6% and 7 (9.6) %
same,"PFS landmark 6-months, % (95% CI)",[2],80.8 (68.5-88.6) %
same,"PFS landmark 12-months, % (95% CI)",[2],38.2 (25.0-51.3) %
same,DoR 25th percentile,[3],5.5 months
same,DoR 75th percentile,[3],8.3 months
same,DoR Median (95% CI),[3],"7.2 months and 7.2 (3.5, 8.4) months"
same,Median PFS (95% CI),[3],"9.2 months and 9.2 (8.0, 12.9) months"
same,BOR: Complete Response,[4],0%
same,BOR: Not Evaluable,[4],1 (1.7) %
same,BOR: Partial Response,[4],5 (8.3) %
same,BOR: Progressive Disease,[4],3 (5.0) %
same,BOR: Stable Disease,[4],51 (85) %
same,"DCR (disease control rate, CR, PR or SD ≥3 months)",[4],39 (65.0) %
same,Median PFS (95% CI),[4],9.3 (8.0-13.7) months
same,Median TTP (95% CI),[4],10.8 (8.5-13.8) months
same,ORR (objective response rate),[4],8.5% and 5 (8.3) %
same,"PFS landmark 6-months, % (95% CI)",[4],80.3 (66.3-88.9) %
same,"PFS landmark 12-months, % (95% CI)",[4],40.4 (25.6-54.6) %
same,DoR 25th percentile,[5],5.4 months
same,DoR 75th percentile,[5],8.3 months
same,BOR: Complete Response,[6],0%
same,BOR: Not Evaluable,[6],0%
same,BOR: Partial Response,[6],2 (15.4) %
same,BOR: Progressive Disease,[6],1 (7.7) %
same,BOR: Stable Disease,[6],10 (76.9) %
same,"DCR (disease control rate, CR, PR or SD ≥3 months)",[6],9 (69.2) %
same,Median PFS (95% CI),[6],8.9 (5.3-12.9) months
same,Median TTP (95% CI),[6],8.9 (5.3-12.9) months
same,"PFS landmark 6-months, % (95% CI)",[6],83.1 (47.2-95.5) %
same,"PFS landmark 12-months, % (95% CI)",[6],26.0 (4.3-56.2) %
same,DoR 25th percentile,[7],5.5 months
same,DoR 75th percentile,[7],7.1 months
same,DoR Median (95% CI),[7],"6.3 (5.5, 7.1) months"
same,estimated PFS rate at 9 months,[1],53.5%
same,estimated TTP rate at 6 months,[8],76.2%
same,estimated TTP rate at 9 months,[8],57.0%
same,estimated TTP rate at 12 months,[8],43.7%
same,Median time to response,"RECIST V1.1, Investigator, 11 responders",57.0 days
same,BOR: Complete Response,[9],0%
same,BOR: Not Evaluable,[9],0%
same,BOR: Partial Response,[9],(20.7) %
same,BOR: Progressive Disease,[9],(10.3) %
same,BOR: Stable Disease,[9],(69.0) %
same,DoR 25th percentile,[9],7.4 months
same,DoR 75th percentile,[9],14.9 months
same,DoR Median,[9],13.5 months
same,BOR: Complete Response,[10],0%
same,BOR: Not Evaluable,[10],0%
same,BOR: Partial Response,[10],(11.4) %
same,BOR: Progressive Disease,[10],(11.4) %
same,BOR: Stable Disease,[10],(77.3) %
same,DoR 25th percentile,[10],14.6 months
same,DoR 75th percentile,[10],17.3 months
same,DoR Median,[10],17.3 months
same,BOR: Complete Response,[11],0%
same,BOR: Not Evaluable,[11],0%
same,Median TTP (95% CI),[11],9.1 (8.5-13.8) months
same,"PFS landmark 6-months, % (95% CI)",[11],76.3 (64.2-84.8) %
same,"PFS landmark 12-months, % (95% CI)",[11],39.7 (27.4-51.6) %
same,DoR 25th percentile,[12],11.9 months
same,DoR 75th percentile,[12],17.3 months
same,DoR Median (95% CI),[12],"14.9 months and 14.9 (4.9, 17.3) months"
same,Median PFS (95% CI),[12],9.0 (7.5-12.8) months
same,BOR: Complete Response,[13],0%
same,BOR: Not Evaluable,[13],0%
same,BOR: Partial Response,[13],11 (18.3) %
same,BOR: Progressive Disease,[13],6 (10.0) %
same,BOR: Stable Disease,[13],43 (71.7) %
same,"DCR (disease control rate, CR, PR or SD ≥3 months)",[13],37 (61.7) %
same,Median PFS (95% CI),[13],9.0 (7.3-12.8) months
same,Median TTP (95% CI),[13],9.0 (7.3-13.5) months
same,ORR (objective response rate),[13],11 (18.3) %
same,"PFS landmark 6-months, % (95% CI)",[13],74.5 (60.7-84.1) %
same,"PFS landmark 12-months, % (95% CI)",[13],38.7 (25.5-51.8) %
same,DoR 25th percentile,[14],11.9 months
same,DoR 75th percentile,[14],17.3 months
same,DoR Median (95% CI),[14],"14.9 (4.9, 17.3) months"
same,BOR: Complete Response,[15],0%
same,BOR: Not Evaluable,[15],0%
same,BOR: Partial Response,[15],0%
same,BOR: Progressive Disease,[15],2 (15.4) %
same,BOR: Stable Disease,[15],11 (84.6) %
same,"DCR (disease control rate, CR, PR or SD ≥3 months)",[15],10 (76.9) %
same,Median PFS (95% CI),[15],10.6 (7.1-17.7) months
same,Median TTP (95% CI),[15],16.4 (8.9-19.1) months
same,ORR (objective response rate),[15],0%
same,"PFS landmark 6-months, % (95% CI)",[15],84.6 (51.2-95.9) %
same,"PFS landmark 12-months, % (95% CI)",[15],43.0 (13.8-69.8) %
same,estimated PFS rate at 9 months,[8],53.6%
same,"Maximum Change in SOT During the first 6 Months on Treatment with Rivoceranib, Mean",[16],−9.9 mm
same,"Maximum Change in SOT During the first 6 Months on Treatment with Rivoceranib, Median",[16],−7.0 mm
same,"Maximum Change in SOT at Any Time on Treatment, Mean",[16],−10.4 mm
same,"Maximum Change in SOT at Any Time on Treatment, Median",[16],−8.0 mm
same,patients with initial response observed at 100 mg,[17],1 patient
same,patients with initial response observed at 200 mg,[17],1.3%
same,patients with initial response observed at 300 mg,[17],4.1%
same,patients with initial response observed at 500 mg,[17],5.5%
same,patients with initial response observed at 700 mg,[17],2.7%
same,patients who died due to disease progression or cancer despite treatment,[18],≥ 21.3%
same,patients who had disease progression despite treatment,[18],48.5%
